According to patent publication US12648979B2, “Compositions comprising sulforaphane or a sulforaphane precursor and Moringa plant components” (Nutramax Laboratories, Inc., priority 2021, dated 2026):

Tests used:
[1] = test system: Epstein-Barr virus-early antigen; conditions: in vitro; cited from earlier work
[2] = test system: NAD(P)H:quinone oxidoreductase 1 (NQO1) gene expression; experiment: NQO1 gene expression in RAW 264.7 macrophage cell line, quantitative RT-PCR (Examples 6, 7, 11); type: cell-based; conditions: 0.5 μM SFN; 24 hours
Method: In the study, the macrophage cell line RAW 264.7 was treated with dimethyl sulfoxide (DMSO) (vehicle control), sulforaphane (SFN), a maitake mushroom extract having about 20% beta-glucan content (Maitake), or the combination of sulforaphane and the maitake mushroom extract, for 24 hours. In particular, the cells were treated with one of the following: (i) DMSO (vehicle control), (ii) 0.5 μM SFN, (iii) 250 μg/mL Maitake, (iv) 500 μg/mL Maitake, (v) 750 μg/mL Maitake, (vi) 0.5 μM SFN and 250 μg/mL Maitake, (vii) 0.5 μM SFN and 500 μg/mL Maitake, and (viii) 0.5 μM SFN and 750 μg/mL Maitake. The gene expression of NQO-1 was analyzed via quantitative RT-PCR. The results, which are depicted in FIG. 2, show the following:
In the study, the macrophage cell line RAW 264.7 was treated with DMSO (vehicle control), sulforaphane (SFN), a shiitake mushroom extract having at least 20% alpha-glucan content (Shiitake), or the combination of sulforaphane and the shiitake mushroom extract, for 24 hours. […] The gene expression of NQO1 was analyzed via quantitative RT-PCR. […]
In the study, the macrophage cell line RAW 264.7 was treated with sulforaphane (SFN), Moringa plant components (MOR), or a combination of SFN and MOR, for 24 hours. […] The gene expression of NQO1 was analyzed via quantitative RT-PCR. […]

[3] = test system: NAD(P)H:quinone oxidoreductase (NQO1); conditions: oral administration; cited from earlier work
heme oxygenase-1 (HO-1) = conditions: oral administration; cited from earlier work
mammary tumors = conditions: rat, in vivo; cited from earlier work
[4] = test system: broccoli sprout-derived myrosinase; experiment: Consumption of glucoraphanin by myrosinase as a function of ascorbic acid concentration (Example 3); type: biochemical; conditions: 600 μmoles/Liter ascorbic acid
Method: A […] Interaction Chromatographic (HILIC) method was developed, comprising the following conditions: • Column: Waters BEH Amide, 1.7-μm particle size; 2.1 mm×100 mm; • Mobile Phase: 20% 10 mM Ammonium Acetate, pH 5.0; 80% acetonitrile; • Separation mode: isocratic; • Column Temperature: 70° C.; • Flow Rate: 0.7 mL/min.
About 250 mg of broccoli seed extract containing about 12% (w/w) glucoraphanin were subjected to hydrolysis by a fixed concentration of broccoli sprout-derived myrosinase in the presence of variable concentration of ascorbic acid, ranging from 0 to 600 μmoles/Liter. The reaction mixtures were thermostated at 38° C.; aliquots were withdrawn every 15 minutes for 60 minutes, and concentration of glucoraphanin determined chromatographically. The rate of glucoraphanin consumption was interpreted as the rate its conversion to sulforaphane. Graphical representation of glucoraphanin content reduction as a function of increasing ascorbic acid concentration results in a series of linear plots; the slopes of the linear regression lines reflect the rate of glucoraphanin consumption, in pmoles/minute. It is apparent that in the presence of 600 μmoles/Liter concentration of ascorbic acid, the reaction rate increased 13-fold relative to that which proceeded in the absence of modulatory effects of ascorbic acid.

myrosinase [5] = experiment: Equimolar conversion of glucoraphanin to sulforaphane by myrosinase, HPLC (Example 4); type: biochemical, broccoli; conditions: PART 2, broccoli seed extract 250 mg
Method: A two-part experiment was conducted to further elucidate the role of ascorbic acid in modulating myrosinase activity. All solutions were prepared in 20 mM Tris-buffered saline, at pH 7.5, previously identified as an optimal for myrosinase activity; each sample tube had 100 mg of freeze-dried broccoli powder accurately weighed in as a source of myrosinase. Experiment was conducted at 38° C. for 2 hours, with sample aliquots removed in 30-minute increments, and both glucoraphanin and sulforaphane content assessed by HPLC. […] A control sample contained no ascorbic acid, and the enzymatic conversion proceeded unassisted by a co-factor. PART 1. In the presence of the fixed concentration of ascorbic acid, 1 mmol/Liter, an increasing amount of broccoli seed extract (about 12% glucoraphanin, w/w) was added, ranging from 250 mg to 500 mg. PART 2. While keeping the amount of broccoli seed extract fixed at 250 mg, the concentration of ascorbic acid was varied from 0.4 mmol/Liter to 3.8 mmol/Liter.

myrosinase [6] = experiment: Conversion of glucoraphanin to sulforaphane in Simulated Intestinal Fluid (Example 5); type: biochemical, broccoli; conditions: 38° C., ascorbic acid 0.25 to 1.00 mmol/Liter, FIG. 1
Method: Simulated Intestinal Fluid (SIF) powder, a commercially supplied concentrate closely approximating the human intestinal content in terms of composition, pH and ionic strength, was used. The experiment utilized a USP Dissolution Apparatus 2 (paddles), where into six dissolution vessels 500 mL of Simulated Intestinal Fluid was dispensed, along with 150 mg of freeze-dried broccoli sprout powder as a source of myrosinase. […] Aliquots were withdrawn every 15 minutes, and assayed for sulforaphane.

Compound: CCCCCCCCC=CCCCCCCCC(=O)OCC1OC(OC2CCC3(C)C(=CCC4C3CCC3(C)C(C(C)CCC(CC)C(C)C)CCC43)C2)C(O)C(O)C1O [3-O-(6′-O-oleoyl-β-D-glucopyranosyl)-β-sitosterol]
- inhibitory effects on Epstein-Barr virus-early antigen [1]: significant inhibitory effects

Compound: C[C@@H]1O[C@@H](Oc2ccc(CN=C=S)cc2)[C@H](O)[C@H](O)[C@H]1O [4(α-L-rhamnosyloxy)-benzyl isothiocyanate]
- inhibitory effects on Epstein-Barr virus-early antigen [1]: significant inhibitory effects

Compound: CCOC(=O)NCc1ccc(O[C@@H]2O[C@@H](C)[C@H](O)[C@@H](O)[C@H]2O)cc1 [O-Ethyl-4-(α-L-rhamnosyloxy)benzyl carbamate]
- inhibitory effects on Epstein-Barr virus-early antigen [1]: significant inhibitory effects

Compound: C[S+]([O-])CCCCN=C=S (centres unmarked) [SFN, 1-isothiocyanato-4-methylsulfinylbutane]
- Fold increase in NQO-1 gene expression [2]: 12.96
- increase in NQO1 enzymatic activity in the mammary epithelium [3]: 3 fold
- elevated immunostaining of HO-1 in the mammary epithelium (heme oxygenase-1 (HO-1)): 4 fold
- blocking the formation of mammary tumors (mammary tumors): effective in blocking the formation of mammary tumors

Compound: O=C1O[C@H]([C@@H](O)CO)C(O)=C1O [ascorbic acid]
- increase of reaction rate relative to absence of ascorbic acid [4]: 13 fold
- ascorbic acid concentration up to which myrosinase-promoted conversion increases linearly, then levels off (myrosinase [5]): about 2 mmol/L
- yield of sulforaphane versus ascorbic acid concentration (myrosinase [6]): direct correlation between larger yield of sulforaphane and higher concentrations of ascorbic acid

Compound: CCOC(=S)NCc1ccc(OC2OC(C)C(O)C(O)C2O)cc1 (centres unmarked) [niazimicin]
- inhibitory effects on Epstein-Barr virus-early antigen [1]: significant inhibitory effects
